Among the data in PubChem BioAssay (NCI) are GI50 and TGI values, retold here.

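Values below derive from 48-hour exposures of cells grown in 96-well plates, with endpoints linearly interpolated between the two concentrations bracketing the appropriate inhibition level. GI50 = concentration required for 50% inhibition of growth. TGI is the concentration that stops growth completely.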 Bounds are passed on as bounds.

One test relates to HS 578T breast. The experiment in a line: NCI anticancer screen, dose series, 48 h.
With `C/C1=C\CC[C@@](C)(O)[C@@H]2C[C@H](CC/C(C)=C/CC1)C1(CC1)C(=O)O2`, the GI50 is 22.1 µM and the TGI came to 60 µM.

With `COc1ccc(C(=O)c2nc3ccccc3n2CC(=O)c2ccc(Cl)cc2)cc1`, the GI50 is 2.49 µM and the TGI came to 12.4 µM.

On to `OCc1ccc(N2CCOCC2)cc1Cl`, for which the GI50 is more than 100 µM and the TGI was more than 100 µM.

For a further test, the system named is MALME-3M melanoma. The experiment in a line: NCI anticancer screen, dose series, 48 h.
With `C/C1=C\CC[C@@](C)(O)[C@@H]2C[C@H](CC/C(C)=C/CC1)C1(CC1)C(=O)O2`, the GI50 is 21.6 µM and the TGI was 64.8 µM.

For `COc1ccc(C(=O)c2nc3ccccc3n2CC(=O)c2ccc(Cl)cc2)cc1`, the GI50 is 1.92 µM and the TGI is more than 100 µM.

Regarding `OCc1ccc(N2CCOCC2)cc1Cl`, the GI50 was more than 100 µM and the TGI is more than 100 µM.

The subject of a further test is NCI-H460 lung. The experiment in a line: NCI anticancer screen, dose series, 48 h.
Take `C/C1=C\CC[C@@](C)(O)[C@@H]2C[C@H](CC/C(C)=C/CC1)C1(CC1)C(=O)O2`: the GI50 is 51.5 µM and the TGI is more than 100 µM.

For `COc1ccc(C(=O)c2nc3ccccc3n2CC(=O)c2ccc(Cl)cc2)cc1`, the GI50 was 7.34 µM and the TGI was more than 100 µM.

Turning to `OCc1ccc(N2CCOCC2)cc1Cl`, the GI50 is 30.9 µM and the TGI was more than 100 µM.

The test system of a further test is OVCAR-5 ovarian. The experiment in a line: NCI anticancer screen, dose series, 48 h.
As to `C/C1=C\CC[C@@](C)(O)[C@@H]2C[C@H](CC/C(C)=C/CC1)C1(CC1)C(=O)O2`, the GI50 was 54.9 µM and the TGI was more than 100 µM.

On to `COc1ccc(C(=O)c2nc3ccccc3n2CC(=O)c2ccc(Cl)cc2)cc1`, for which the GI50 is more than 82.3 µM and the TGI was more than 100 µM.

`OCc1ccc(N2CCOCC2)cc1Cl`: the GI50 was 2.42 µM and the TGI was found to be 10.6 µM.

In the next test the test system is OVCAR-8 ovarian. The experiment in a line: NCI anticancer screen, dose series, 48 h.
`C/C1=C\CC[C@@](C)(O)[C@@H]2C[C@H](CC/C(C)=C/CC1)C1(CC1)C(=O)O2`: the GI50 was 61.5 µM and the TGI is more than 100 µM.

Consider `COc1ccc(C(=O)c2nc3ccccc3n2CC(=O)c2ccc(Cl)cc2)cc1`, for which the GI50 was 6.3 µM and the TGI was more than 100 µM.

With `OCc1ccc(N2CCOCC2)cc1Cl`, the GI50 was more than 100 µM and the TGI is more than 100 µM.

In the next test the test system is RXF 393 renal. The experiment in a line: NCI anticancer screen, dose series, 48 h.
Regarding `C/C1=C\CC[C@@](C)(O)[C@@H]2C[C@H](CC/C(C)=C/CC1)C1(CC1)C(=O)O2`, the GI50 is more than 100 µM and the TGI is more than 100 µM.

For `COc1ccc(C(=O)c2nc3ccccc3n2CC(=O)c2ccc(Cl)cc2)cc1`, the GI50 is 2.6 µM and the TGI was more than 24.6 µM.

Take `OCc1ccc(N2CCOCC2)cc1Cl`: the GI50 was more than 79.1 µM and the TGI is more than 100 µM.

In a further test the test system is SW-620 colon. The experiment in a line: NCI anticancer screen, dose series, 48 h.
On to `C/C1=C\CC[C@@](C)(O)[C@@H]2C[C@H](CC/C(C)=C/CC1)C1(CC1)C(=O)O2`, for which the GI50 was 27.1 µM and the TGI was found to be 73.1 µM.

As to `COc1ccc(C(=O)c2nc3ccccc3n2CC(=O)c2ccc(Cl)cc2)cc1`, the GI50 was 1.29 µM and the TGI was more than 100 µM.

As to `OCc1ccc(N2CCOCC2)cc1Cl`, the GI50 was more than 100 µM and the TGI was more than 100 µM.

The test system of another test is TK-10 renal. The experiment in a line: NCI anticancer screen, dose series, 48 h.
As to `C/C1=C\CC[C@@](C)(O)[C@@H]2C[C@H](CC/C(C)=C/CC1)C1(CC1)C(=O)O2`, the GI50 was 29.6 µM and the TGI was determined as 96.5 µM.

Consider `COc1ccc(C(=O)c2nc3ccccc3n2CC(=O)c2ccc(Cl)cc2)cc1`, for which the GI50 was 4.02 µM and the TGI was more than 100 µM.

For the compound `OCc1ccc(N2CCOCC2)cc1Cl`, the GI50 is 2.94 µM and the TGI was determined as 11.4 µM.

In another test the test system is U251 CNS. The experiment in a line: NCI anticancer screen, dose series, 48 h.
Consider `C/C1=C\CC[C@@](C)(O)[C@@H]2C[C@H](CC/C(C)=C/CC1)C1(CC1)C(=O)O2`, for which the GI50 was 23 µM and the TGI was found to be 57.1 µM.

As for `COc1ccc(C(=O)c2nc3ccccc3n2CC(=O)c2ccc(Cl)cc2)cc1`, the GI50 was 3.41 µM and the TGI was more than 100 µM.

In the case of `OCc1ccc(N2CCOCC2)cc1Cl`, the GI50 is more than 72.2 µM and the TGI was more than 100 µM.

The subject of a further test is UACC-62 melanoma. The experiment in a line: NCI anticancer screen, dose series, 48 h.
As to `C/C1=C\CC[C@@](C)(O)[C@@H]2C[C@H](CC/C(C)=C/CC1)C1(CC1)C(=O)O2`, the GI50 is 15.2 µM and the TGI came out at 37.3 µM.

On to `COc1ccc(C(=O)c2nc3ccccc3n2CC(=O)c2ccc(Cl)cc2)cc1`, for which the GI50 is 4.93 µM and the TGI is more than 100 µM.

As for `OCc1ccc(N2CCOCC2)cc1Cl`, the GI50 was 14.4 µM and the TGI was more than 91.2 µM.
